# Reference: article PMC8854719, “Phase 1A/1B dose-escalation and -expansion study to evaluate the safety, pharmacokinetics, food effects and antitumor activity of pamiparib in advanced solid tumours” (British Journal of Cancer, 2021)
# Assays:
# [1] = Food-effects cohort: PK fasted vs high-fat meal; format: in vivo, human
# Procedure: Patients in the food-effects cohort received a single dose of pamiparib 60 mg (based on the RP2D) on day 1 of cycle 1, followed by a 5-day washout; patients then received another single dose of 60 mg on day 6. Seven patients in sequence 1 (fast followed by fed) received pamiparib after a ≥ 10-h fast on day 1 and after consuming a standard high-fat meal (described in the Supplemental Appendix) 30 min prior to drug administration on day 6. Six patients in sequence 2 (fed followed by fast) received pamiparib after a high-fat meal on day 1 and after a ≥ 10-h fast on Day 6. From day 8 of cycle 1 onward, patients received 60-mg BID treatment.
# Pamiparib in plasma was measured using a validated liquid chromatography-tandem–mass spectrometry assay with a lower limit of quantification of 1.0 ng/mL. The collection schedule for blood samples used to assess the PK profile is presented in the Supplemental Appendix. Summary PK parameters, including area under the concentration-time curve from time 0 to 9 h (AUC0-9) or infinity (AUC0-inf), maximal plasma concentration (Cmax) and time to maximal plasma concentration (Tmax), were estimated. The pharmacodynamic (PD) activity of pamiparib was explored through the evaluation of poly(ADP-ribose [PAR]) formation in peripheral blood mononuclear cells (PBMCs) after pamiparib administration. The schedule for blood sample collection (PK and PBMCs) and additional assessment information for PAR levels in PBMCs and pharmacodynamic activity is presented in the Supplemental Appendix. Antitumor activity was assessed by radiographic imaging (computed tomography or magnetic resonance imaging) during screening, within 28 days of first pamiparib dose, every 6 weeks in the first 12 months and every 9 weeks thereafter.
# An example of a recommended United States Food and Drug Administration (US FDA) standard high-fat meal comprises two eggs fried in butter, two strips of bacon, two slices of toast with butter, 4 ounces of hash brown potatoes, and 8 ounces of whole milk.
# The PK profile of pamiparib was assessed based on blood samples collected at predose and 0.5, 1, 2, 4, 6, 9, 24, and 48 hours postdose on Days 1-3 and then at predose and 0.5, 1, 2, 4, 6, and 9 hours postdose on Day 17 of Cycle 1 in Phase 1A. Sparse PK samples were collected in phase 1B Part A. The food effect on the PK of pamiparib was assessed based on blood samples collected at predose and 0.5, 1, 2, 4, 7, 24, and 48 hours postdose on Day 1 and Day 6 of Cycle 1 in phase 1B Part B.
# P-glycoprotein = system: P-glycoprotein; design: method as in PMID 32652442; settings: cited from earlier work
# [2] = single 60 mg dose, high-fat breakfast vs fasted
smiles,measurement,setting,value
C[C@]12CCCN1CC1=NNC(=O)c3cc(F)cc4[nH]c2c1c34 [pamiparib],Food effects on pharmacokinetics (in words),[1]; 60 mg single dose,no food effects
same,Tmax,"[1]; human, plasma, oral, single 60 mg dose with a high-fat breakfast, read-out: Median Tmax",7 h
same,Reduction of AUC0-inf with food,[1]; [2],12%
same,Reduction of Cmax with food,[1]; [2],41%
same,Substrate of P-glycoprotein,P-glycoprotein,not a substrate
